In patent US20260256792A1, “TREATMENT OF CHRONIC SPONTANEOUS URTICARIA BY ADMINISTERING (R)-2-[3-[4-AMINO-3-(2-FLUORO-4-PHENOXY-PHENYL)PYRAZOLO[3,4-D]PYRIMIDIN-1-YL]PIPERIDINE-1-CARBONYL]-4-METHYL-4-[4-(OXETAN-3-YL)PIPERAZIN-1-YL]PENT-2-ENENITRILE” (priority 2023, published 2026):

Tested on: moderate-to-severe chronic spontaneous urticaria (CSU)
Experiment: Phase 2 CSU study: urticaria activity score over 7 days (UAS7)
Assay type: in vivo, human
Settings: Omalizumab-Naïve
Excerpt: The study comprises a 12 week, randomized, double-blind, placebo-controlled, multi-center, dose-ranging efficacy and safety phase, followed by a 40 week open label extension (OLE) phase (see FIG. 1). The study consists of three phases and an optional OLE phase. […] Clinically, CSU is characterized by the spontaneous and recurrent appearance of pruritic hives. The proposed primary endpoints were the UAS7 at Week 12 in EU and EU reference countries and the ISS7 in the US. Regardless of where a participant was from, all assessments were the same. The UAS7 score is a composite score containing both the HSS7 and the ISS7. This allowed a global assessment of the two key components of urticaria: hives and itch. […] The UAS is a validated PRO measure. […] The daily UAS scores range from 0 to 6 point/day. […] Patients were to complete the UAS using the e-diary. […] The following secondary endpoints were to be analyzed using the same approach as for the primary endpoint: • Change from baseline in UAS7 at Week 4 • Change from baseline in UAS7 at Week 12 (for US and US reference countries) • Change from baseline in ISS7 at Week 12 (except US and US reference countries) • Change from baseline in HSS7 at Week 12 The following responder secondary endpoints were to be analyzed using the Cochran-Mantel-Haenszel test adjusted by region: • Proportion of participants with UAS7<6 at Week 12 • Proportion of participants with UAS7=0 at Week 12 Participants who received selected prohibited medications and/or rescue medications were to be considered as non-responders for time points after the medication usage. For other participants, all available data including those collected during the off-treatment period were to be used to determine the responder/non-responder status. Missing data were to be considered as non-responders.

[1] = Age group (years) ≥44 (Median), 400 mg QPM
[2] = Age group (years) ≥44 (Median), 400 mg TID
[3] = Age group (years) ≥65, 400 mg BID
[4] = Age group (years) ≥65, 400 mg QPM
[5] = Age group (years) ≥65, 400 mg TID
[6] = Baseline BHRA BHRA+, 400 mg BID
[7] = Baseline BHRA BHRA+, 400 mg QPM
[8] = Baseline BHRA BHRA+, 400 mg TID
[9] = Baseline BHRA BHRA−, 400 mg BID
[10] = Baseline BHRA BHRA−, 400 mg QPM
[11] = Baseline BHRA BHRA−, 400 mg TID
[12] = Baseline Eosinophils (10^9/L) <0.150, 400 mg BID
[13] = Baseline Eosinophils (10^9/L) <0.150, 400 mg TID
[14] = Baseline Eosinophils (10^9/L) <0.165 (Median), 400 mg BID
[15] = Baseline Eosinophils (10^9/L) <0.165 (Median), 400 mg QPM
[16] = Baseline Eosinophils (10^9/L) <0.165 (Median), 400 mg TID
[17] = Baseline Eosinophils (10^9/L) <0.3, 400 mg BID
[18] = Baseline Eosinophils (10^9/L) <0.3, 400 mg QPM
[19] = Baseline Eosinophils (10^9/L) <0.3, 400 mg TID
[20] = Baseline Eosinophils (10^9/L) ≥0.150, 400 mg BID
[21] = Baseline Eosinophils (10^9/L) ≥0.150, 400 mg TID
[22] = Baseline Eosinophils (10^9/L) ≥0.165 (Median), 400 mg BID
[23] = Baseline Eosinophils (10^9/L) ≥0.165 (Median), 400 mg QPM
[24] = Baseline Eosinophils (10^9/L) ≥0.165 (Median), 400 mg TID

CC(C)(C=C(C#N)C(=O)N1CCC[C@@H](n2nc(-c3ccc(Oc4ccccc4)cc3F)c3c(N)ncnc32)C1)N1CCN(C2COC2)CC1 [rilzabrutinib, (R)-2-[3-[4-amino-3-(2-fluoro-4-phenoxy-phenyl)pyrazolo[3,4-d]pyrimidin-1-yl]piperidine-1-carbonyl]-4-methyl-4-[4-(oxetan-3-yl)piperazin-1-yl]pent-2-enenitrile]
Change from Baseline in UAS7 at Week 12: LS Mean Diff vs. placebo (95% CI) [1]: 2.72 (−5.76, 11.20) | Change from Baseline in UAS7 at Week 12: Mean (SD) [1]: −10.71 (7.99) | Change from Baseline in UAS7 at Week 12: LS Mean (SE) [2]: −17.54 (2.39) | Change from Baseline in UAS7 at Week 12: LS Mean Diff vs. placebo (95% CI) [2]: −5.98 (−13.92, 1.95) | Change from Baseline in UAS7 at Week 12: Mean (SD) [2]: −19.17 (11.98) | Change from Baseline in UAS7 at Week 12: LS Mean (SE) [3]: −21.85 (10.98) | Change from Baseline in UAS7 at Week 12: Mean (SD) [3]: −29.00 (NC)^ | Change from Baseline in UAS7 at Week 12: LS Mean (SE) [4]: −1.73 (17.36) | Change from Baseline in UAS7 at Week 12: LS Mean Diff vs. placebo (95% CI) [4]: −3.19 (−44.28, 37.89) | Change from Baseline in UAS7 at Week 12: Mean (SD) [4]: −16.33 (NC) ^ | Change from Baseline in UAS7 at Week 12: LS Mean (SE) [5]: −23.81 (7.07) | Change from Baseline in UAS7 at Week 12: Mean (SD) [5]: −24.13 (14.17) | Change from Baseline in UAS7 at Week 12: LS Mean (SE) [6]: −19.58 (5.46) | Change from Baseline in UAS7 at Week 12: LS Mean Diff vs. placebo (95% CI) [6]: −10.09 (−27.02, 6.84) | Change from Baseline in UAS7 at Week 12: Mean (SD) [6]: −19.50 (10.03) | Change from Baseline in UAS7 at Week 12: LS Mean (SE) [7]: −17.03 (6.45) | Change from Baseline in UAS7 at Week 12: LS Mean Diff vs. placebo (95% CI) [7]: −7.53 (−24.53, 9.46) | Change from Baseline in UAS7 at Week 12: Mean (SD) [7]: −19.94 (5.28) | Change from Baseline in UAS7 at Week 12: LS Mean (SE) [8]: −22.12 (5.72) | Change from Baseline in UAS7 at Week 12: LS Mean Diff vs. placebo (95% CI) [8]: −12.63 (−29.25, 4.00) | Change from Baseline in UAS7 at Week 12: Mean (SD) [8]: −22.13 (16.40) | Change from Baseline in UAS7 at Week 12: LS Mean (SE) [9]: −12.39 (2.21) | Change from Baseline in UAS7 at Week 12: LS Mean Diff vs. placebo (95% CI) [9]: −2.42 (−8.35, 3.52) | Change from Baseline in UAS7 at Week 12: LS Mean (SE) [10]: −8.95 (2.08) | Change from Baseline in UAS7 at Week 12: LS Mean Diff vs. placebo (95% CI) [10]: 1.02 (−4.73, 6.78) | Change from Baseline in UAS7 at Week 12: Mean (SD) [10]: −9.96 (9.08) | Change from Baseline in UAS7 at Week 12: LS Mean (SE) [11]: −16.51 (2.11) | Change from Baseline in UAS7 at Week 12: LS Mean Diff vs. placebo (95% CI) [11]: −6.53 (−12.28, −0.79) | Change from Baseline in UAS7 at Week 12: Mean (SD) [11]: −18.52 (10.75) | Change from Baseline in UAS7 at Week 12: LS Mean Diff vs. placebo (95% CI) (Baseline BMI (kg/m^2) ≥30, 400 mg BID): −1.65 (−13.49, 10.19) | Change from Baseline in UAS7 at Week 12: LS Mean Diff vs. placebo (95% CI) (Baseline BMI (kg/m^2) ≥30, 400 mg QPM): −0.43 (−11.59, 10.72) | Change from Baseline in UAS7 at Week 12: LS Mean Diff vs. placebo (95% CI) (Baseline BMI (kg/m^2) ≥30, 400 mg TID): −7.58 (−20.66, 5.50) | Change from Baseline in UAS7 at Week 12: LS Mean (SE) [12]: −13.60 (3.19) | Change from Baseline in UAS7 at Week 12: LS Mean Diff vs. placebo (95% CI) [12]: −0.54 (−8.95, 7.87) | Change from Baseline in UAS7 at Week 12: LS Mean (SE) [13]: −20.09 (3.11) | Change from Baseline in UAS7 at Week 12: LS Mean Diff vs. placebo (95% CI) [13]: −7.04 (−15.34, 1.27) | Change from Baseline in UAS7 at Week 12: LS Mean (SE) [14]: −14.30 (2.83) | Change from Baseline in UAS7 at Week 12: LS Mean Diff vs. placebo (95% CI) [14]: −1.83 (−9.50, 5.84) | Change from Baseline in UAS7 at Week 12: Mean (SD) [14]: −11.24 (8.98) | Change from Baseline in UAS7 at Week 12: LS Mean (SE) [15]: −7.71 (2.71) | Change from Baseline in UAS7 at Week 12: LS Mean Diff vs. placebo (95% CI) [15]: 4.76 (−2.75, 12.26) | Change from Baseline in UAS7 at Week 12: Mean (SD) [15]: 9.46 (8.63) | Change from Baseline in UAS7 at Week 12: LS Mean (SE) [16]: −19.82 (2.96) | Change from Baseline in UAS7 at Week 12: LS Mean Diff vs. placebo (95% CI) [16]: −7.36 (−15.23, 0.52) | Change from Baseline in UAS7 at Week 12: Mean (SD) [16]: −21.57 (13.01) | Change from Baseline in UAS7 at Week 12: LS Mean (SE) [17]: −15.05 (2.31) | Change from Baseline in UAS7 at Week 12: LS Mean Diff vs. placebo (95% CI) [17]: −4.89 (−11.04, 1.26) | Change from Baseline in UAS7 at Week 12: Mean (SD) [17]: −14.90 (12.30) | Change from Baseline in UAS7 at Week 12: LS Mean (SE) [18]: −9.19 (2.15) | Change from Baseline in UAS7 at Week 12: LS Mean Diff vs. placebo (95% CI) [18]: 0.97 (−5.00, 6.93) | Change from Baseline in UAS7 at Week 12: Mean (SD) [18]: −10.75 (8.91) | Change from Baseline in UAS7 at Week 12: LS Mean (SE) [19]: −18.29 (2.31) | Change from Baseline in UAS7 at Week 12: LS Mean Diff vs. placebo (95% CI) [19]: −8.14 (−14.29, −1.98) | Change from Baseline in UAS7 at Week 12: Mean (SD) [19]: −19.99 (12.00) | Change from Baseline in UAS7 at Week 12: LS Mean (SE) [20]: −14.57 (2.57) | Change from Baseline in UAS7 at Week 12: LS Mean Diff vs. placebo (95% CI) [20]: −7.68 (−15.25, −0.11) | Change from Baseline in UAS7 at Week 12: LS Mean (SE) [21]: −14.80 (2.58) | Change from Baseline in UAS7 at Week 12: LS Mean Diff vs. placebo (95% CI) [21]: −7.92 (−15.27, −0.56) | Change from Baseline in UAS7 at Week 12: LS Mean (SE) [22]: −14.13 (2.87) | Change from Baseline in UAS7 at Week 12: LS Mean Diff vs. placebo (95% CI) [22]: −7.01 (−15.24, 1.22) | Change from Baseline in UAS7 at Week 12: Mean (SD) [22]: −17.73 (14.16) | Change from Baseline in UAS7 at Week 12: LS Mean (SE) [23]: −10.83 (2.83) | Change from Baseline in UAS7 at Week 12: LS Mean Diff vs. placebo (95% CI) [23]: −3.71 (−11.80, 4.38) | Change from Baseline in UAS7 at Week 12: Mean (SD) [23]: −11.84 (10.30) | Change from Baseline in UAS7 at Week 12: LS Mean (SE) [24]: −14.63 (2.71) | Change from Baseline in UAS7 at Week 12: LS Mean Diff vs. placebo (95% CI) [24]: −7.52 (−15.32, 0.28)
